Assay results published in PubChem BioAssay (NCI).
Where “and” joins values, the source holds several entries; their conditions need not be identical. Equal values may be shown once.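 In this assay, cells in 96-well plates receive the compound at five concentrations for 48 hours. Endpoints are linearly interpolated between the surrounding concentrations. Here, GI50 denotes the concentration required for 50% inhibition of growth. The concentration for full growth arrest is given as TGI.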

Tests used:
Test in all cases: NCI anticancer screen, dose series, 48 h
HCT-15 colon = tested on: HCT-15 colon
CCRF-CEM leukemia = tested on: CCRF-CEM leukemia
HCC-2998 colon = tested on: HCC-2998 colon
MDA-MB-231 breast = tested on: MDA-MB-231 breast
K-562 leukemia = tested on: K-562 leukemia
SN12C renal = tested on: SN12C renal
SW-620 colon = tested on: SW-620 colon
HOP-92 NSCLC = tested on: HOP-92 NSCLC
SR leukemia = tested on: SR leukemia
EKVX NSCLC = tested on: EKVX NSCLC
MDA-N = tested on: MDA-N
T-47D breast = tested on: T-47D breast
SK-MEL-28 melanoma = tested on: SK-MEL-28 melanoma
SNB-19 CNS = tested on: SNB-19 CNS
A549 NSCLC = tested on: A549 NSCLC
HOP-62 NSCLC = tested on: HOP-62 NSCLC
NCI/ADR-RES ovarian = tested on: NCI/ADR-RES ovarian
MDA-MB-435 = tested on: MDA-MB-435
KM12 colon = tested on: KM12 colon
SNB-75 CNS = tested on: SNB-75 CNS
HS 578T breast = tested on: HS 578T breast
NCI-H460 lung = tested on: NCI-H460 lung
U251 CNS = tested on: U251 CNS
UO-31 renal = tested on: UO-31 renal
OVCAR-8 ovarian = tested on: OVCAR-8 ovarian
HCT-116 colon = tested on: HCT-116 colon
UACC-257 melanoma = tested on: UACC-257 melanoma
SK-OV-3 ovarian = tested on: SK-OV-3 ovarian
A498 renal = tested on: A498 renal
SF-268 CNS = tested on: SF-268 CNS
PC-3 prostate = tested on: PC-3 prostate
UACC-62 melanoma = tested on: UACC-62 melanoma
IGROV1 ovarian = tested on: IGROV1 ovarian
HT29 colon = tested on: HT29 colon
OVCAR-5 ovarian = tested on: OVCAR-5 ovarian
RPMI-8226 leukemia = tested on: RPMI-8226 leukemia
MCF7 breast = tested on: MCF7 breast
786-0 renal = tested on: 786-0 renal
NCI-H23 lung = tested on: NCI-H23 lung
SK-MEL-2 melanoma = tested on: SK-MEL-2 melanoma
NCI-H226 lung = tested on: NCI-H226 lung
COLO 205 colon = tested on: COLO 205 colon
SF-295 CNS = tested on: SF-295 CNS
SK-MEL-5 melanoma = tested on: SK-MEL-5 melanoma
ACHN renal = tested on: ACHN renal
OVCAR-4 ovarian = tested on: OVCAR-4 ovarian
MOLT-4 leukemia = tested on: MOLT-4 leukemia
TK-10 renal = tested on: TK-10 renal
NCI-H522 lung = tested on: NCI-H522 lung
BT-549 breast = tested on: BT-549 breast
M14 melanoma = tested on: M14 melanoma
HL-60(TB) leukemia = tested on: HL-60(TB) leukemia
OVCAR-3 ovarian = tested on: OVCAR-3 ovarian
DU-145 prostate = tested on: DU-145 prostate
SF-539 CNS = tested on: SF-539 CNS
LOX IMVI melanoma = tested on: LOX IMVI melanoma
RXF 393 renal = tested on: RXF 393 renal
CAKI-1 renal = tested on: CAKI-1 renal

For `O=C1OC(c2ccccc2)=N/C1=C\c1ccccc1`, the GI50 (HCT-15 colon) was > 100 µM and 49 µM, the TGI (HCT-15 colon) was greater than 100 µM and the TGI (CCRF-CEM leukemia) was 74.4 µM and 87.5 µM. The TGI (HCC-2998 colon) was greater than 100 µM, the TGI (MDA-MB-231 breast) was greater than 100 µM and the GI50 (K-562 leukemia) was > 100 µM and 19.8 µM. For the same molecule, the TGI (K-562 leukemia) was > 100 µM and 46.3 µM, the TGI (SN12C renal) was greater than 100 µM and the GI50 (SW-620 colon) was > 100 µM and 35.5 µM. The TGI (SW-620 colon) was greater than 100 µM, the TGI (HOP-92 NSCLC) was greater than 100 µM and the TGI (SR leukemia) was 73.4 µM and > 100 µM. It also gave a TGI (EKVX NSCLC) greater than 100 µM, a TGI (MDA-N) greater than 100 µM and a TGI (T-47D breast) greater than 100 µM. For the same molecule, the TGI (SK-MEL-28 melanoma) was greater than 100 µM, the TGI (SNB-19 CNS) was greater than 100 µM and the TGI (A549 NSCLC) was greater than 100 µM. For the same molecule, the TGI (HOP-62 NSCLC) was > 100 µM and 73.5 µM, the TGI (NCI/ADR-RES ovarian) was > 100 µM and 76.9 µM and the TGI (MDA-MB-435) was greater than 100 µM. For the same molecule, the TGI (KM12 colon) was > 100 µM and 62.2 µM, the TGI (SNB-75 CNS) was greater than 100 µM and the TGI (HS 578T breast) was greater than 100 µM. The TGI (NCI-H460 lung) was greater than 100 µM, the TGI (U251 CNS) was greater than 100 µM and the TGI (UO-31 renal) was greater than 100 µM. The TGI (OVCAR-8 ovarian) was > 100 µM and 73.1 µM, the TGI (HCT-116 colon) was greater than 100 µM and the TGI (UACC-257 melanoma) was 59.7 µM and > 100 µM. The TGI (SK-OV-3 ovarian) was greater than 100 µM, the TGI (A498 renal) was greater than 100 µM and the GI50 (SF-268 CNS) was 14.5 µM and 34.8 µM. The TGI (SF-268 CNS) was 82.5 µM and > 100 µM, the TGI (PC-3 prostate) was greater than 100 µM and the TGI (UACC-62 melanoma) was greater than 100 µM. The TGI (IGROV1 ovarian) was greater than 100 µM, the GI50 (HT29 colon) was > 100 µM and 32.8 µM and the TGI (HT29 colon) was greater than 100 µM. For the same molecule, the TGI (OVCAR-5 ovarian) was greater than 100 µM, the TGI (RPMI-8226 leukemia) was > 100 µM and 56.8 µM and the TGI (MCF7 breast) was greater than 100 µM. For the same molecule, the GI50 (786-0 renal) was 44.6 µM and > 100 µM, the TGI (786-0 renal) was greater than 100 µM and the TGI (NCI-H23 lung) was greater than 100 µM. The TGI (SK-MEL-2 melanoma) was 46.8 µM, the TGI (NCI-H226 lung) was > 100 µM and 58.2 µM and the GI50 (COLO 205 colon) was > 100 µM and 37.2 µM. For the same molecule, the TGI (COLO 205 colon) was greater than 100 µM, the TGI (SF-295 CNS) was greater than 100 µM and the TGI (SK-MEL-5 melanoma) was greater than 100 µM. For the same molecule, the TGI (ACHN renal) was greater than 100 µM, the TGI (OVCAR-4 ovarian) was greater than 100 µM and the TGI (MOLT-4 leukemia) was 85.5 µM and > 100 µM. For the same molecule, the TGI (TK-10 renal) was greater than 100 µM, the TGI (NCI-H522 lung) was greater than 100 µM and the GI50 (BT-549 breast) was 68.9 µM and 26.8 µM. For the same molecule, the TGI (BT-549 breast) was greater than 100 µM, the TGI (M14 melanoma) was greater than 100 µM and the TGI (HL-60(TB) leukemia) was 99.2 µM and 84.4 µM. For the same molecule, the TGI (OVCAR-3 ovarian) was greater than 100 µM, the TGI (DU-145 prostate) was greater than 100 µM and the TGI (SF-539 CNS) was 55.2 µM and 40.8 µM. For the same molecule, the TGI (LOX IMVI melanoma) was 51.8 µM and 31.6 µM, the GI50 (RXF 393 renal) was > 100 µM and 43 µM and the TGI (RXF 393 renal) was greater than 100 µM. It also gave a TGI (CAKI-1 renal) greater than 100 µM.
